Blank lines part the entries; values can stand above or below the molecule they belong to. Square brackets hold non-standard residues; d marks the D form. Ends that are not written are not given here. Peptide text beside a SMILES is read from it.
Assays:
human CMKLR1 = biological target: T1, human CMKLR1 (Homo sapiens, UniProt Q99788); experiment: Ca2+ mobilization (CellLux imaging) agonist assay in HEK293A cells expressing CMKLR1 and Gα15; assay type: cell-based; conditions: Ca2+ mobilization, CMKLR1, decimal comma; for EC50: NR where no EC50 is given, read-out: EC50
T1 construct: host or cells: HEK293A (Invitrogen), stably expressing human Gα15
T1 sequence (Q99788 1-373): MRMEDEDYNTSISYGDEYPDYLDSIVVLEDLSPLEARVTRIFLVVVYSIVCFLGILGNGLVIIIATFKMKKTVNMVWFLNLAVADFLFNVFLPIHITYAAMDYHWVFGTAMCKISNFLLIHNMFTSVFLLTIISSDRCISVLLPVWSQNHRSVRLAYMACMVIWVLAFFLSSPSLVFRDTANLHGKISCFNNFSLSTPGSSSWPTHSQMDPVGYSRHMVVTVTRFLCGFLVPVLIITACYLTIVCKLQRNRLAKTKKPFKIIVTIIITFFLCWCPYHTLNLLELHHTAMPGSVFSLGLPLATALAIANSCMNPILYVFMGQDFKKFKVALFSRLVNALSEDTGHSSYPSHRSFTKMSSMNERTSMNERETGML
Protocol: HEK293A cells (Invitrogen) expressing CMKLR1 and Gα15 were seeded at 5*10^4 cells/well in a poly-D-lysine coated 96-well black well/clear bottom plate (BD Falcon) and cultured overnight. From eighteen to twenty-four hours later, cells were loaded with FLUO4-AM (Invitrogen). Then the cells were washed two times with C1 solution (130 mM NaCl, 5 mM KCl, 10 mM HEPES pH 7.4, 2 mM CaCl2, and 10 mM Glucose). After the final wash, a 100 µL of residual volume remained on the cells. Peptides were dissolved in 10% DMSO to a concentration of 1 mM and were diluted in C1 solution with 0.1 % BSA. They were aliquoted as 2x solutions in 96-well plates and were simultaneously transferred by the robotic system within the imager from the ligand plate to the cell plate. […] Fluorescence data was generated in duplicate and experiments were repeated for at least three times. […] For the calculation of concentration-response curves, signals of two wells receiving the same concentration of test substances were averaged and the fluorescence changes of corresponding buffer C1 wells were subtracted. Signals were normalized to background fluorescence. For the calculation of EC50 values, plots of amplitude versus concentrations were prepared in SigmaPlot 11.

[1] = In vitro peptide stability in human serum (RP-HPLC); conditions: for half-life at 50 µg/mL / half-life: human; for half-life at 50 µg/mL: human serum, 25% (v/v) in RPMI; for half-life: serum
Protocol: The initial time is recorded, and at known time intervals 50 µL of the reaction solution is removed and added to 100 µL of 6% aqueous trichloroacetic acid (TCA) for precipitation of serum proteins. […] The reaction supernatant is then analyzed using RP-HPLC (Agilent 1200 LC System) on a ZORBAX Eclipse XDB-C18, 4.6×150 mm, 5 µm column (Agilent). […] Fluorescence is detected at an excitation wavelength of 280 nm and emission wavelength of 340 nm. Kinetic analysis was carried out by least-squares analysis of the logarithm of the integration peak area versus time.

Molecule: CC(C)[C@H](NC(=O)[C@@H](N)Cc1ccc(O)cc1)C(=O)N1CCC[C@H]1C(=O)NCC(=O)N[C@@H](CCC(N)=O)C(=O)N[C@@H](Cc1ccccc1)C(=O)N[C@@H](C)C(=O)N[C@@H](Cc1ccccc1)C(=O)N[C@H](CO)C(=O)O [compound 90] (H-YVPGQFAF[dS]-OH; N-terminus assumed)
max response (human CMKLR1): 1,81 DF/F0
EC50 (human CMKLR1): 50 nM
half-life at 50 µg/mL [1]: 23 min

Molecule: CC(C)C[C@H](NC(=O)[C@H](N)Cc1ccc(O)cc1)C(=O)N1CCC[C@H]1C(=O)NCC(=O)N[C@@H](CCC(N)=O)C(=O)N[C@@H](Cc1ccc(O)cc1)C(=O)N[C@@H](C)C(=O)N[C@@H](Cc1ccc(O)cc1)C(=O)N[C@@H](CO)C(=O)O [compound 101] (H-[dY]LPGQYAYS-OH; N-terminus assumed)
max response (human CMKLR1): 1,56 DF/F0
EC50 (human CMKLR1): 140 nM
half-life at 50 µg/mL [1]: 81 min

Molecule: CC(C)C[C@H](NC(=O)[C@H](N)Cc1ccc(O)cc1)C(=O)N1CCC[C@H]1C(=O)NCC(=O)N[C@@H](CCC(N)=O)C(=O)N[C@@H](Cc1ccc(O)cc1)C(=O)N[C@@H](C)C(=O)N[C@@H](Cc1ccccc1)C(=O)N[C@@H](CO)C(=O)O (H-[dY]LPGQYAFS-OH)
half-life [1]: 77 ± 5 min

Molecule: CC(C)C[C@H](NC(=O)[C@@H](N)Cc1ccc(O)cc1)C(=O)N1CCC[C@H]1C(=O)NCC(=O)N[C@@H](CCC(N)=O)C(=O)N[C@@H](Cc1ccc(O)cc1)C(=O)N[C@@H](C)C(=O)N[C@@H](Cc1ccccc1)C(=O)N[C@H](CO)C(=O)O (H-YLPGQYAF[dS]-OH; N-terminus assumed)
half-life at 50 µg/mL [1]: 22 ± 2 min

Molecule: CC(C)C[C@H](NC(=O)[C@H](N)Cc1ccc(O)cc1)C(=O)N1CCC[C@H]1C(=O)NCC(=O)N[C@@H](CCC(N)=O)C(=O)N[C@@H](Cc1ccc(O)cc1)C(=O)N[C@@H](C)C(=O)N[C@@H](Cc1ccccc1)C(=O)N[C@@H](Cc1ccccc1)C(=O)O (H-[dY]LPGQYAFF-OH; N-terminus assumed)
half-life at 50 µg/mL [1]: 135 ± 39 min

Molecule: YFPGQFAFG-OH
half-life at 50 µg/mL [1]: 13 ± 1 min

Molecule: C[C@H](NC(=O)[C@H](Cc1ccc(O)cc1)NC(=O)[C@@H](CCC(N)=O)NC(=O)CNC(=O)[C@@H]1CCCN1C(=O)[C@@H](Cc1ccc(O)cc1)NC(=O)[C@@H](N)Cc1ccc(O)cc1)C(=O)N[C@@H](Cc1ccc(O)cc1)C(=O)N[C@@H](CO)C(N)=O [compound 19] (H-Y[dY]PG[dQ]YAYS-NH2; N-terminus assumed)
max response (human CMKLR1): 0,42 DF/F0
EC50 (human CMKLR1): 9550 nM

Molecule: CC(C)C[C@H](NC(=O)[C@@H](N)Cc1ccccc1)C(=O)N1CCC[C@H]1C(=O)NCC(=O)N[C@@H](CCC(N)=O)C(=O)N[C@@H](Cc1ccccc1)C(=O)N[C@@H](C)C(=O)N[C@@H](Cc1ccccc1)C(=O)N1CCC[C@@H]1C(=O)O [compound 110] (H-FLPGQFAF[dP]-OH; N-terminus assumed)
max response (human CMKLR1): 1,59 DF/F0
EC50 (human CMKLR1): 1770 nM

Molecule: CC(C)C[C@H](NC(=O)[C@@H](N)Cc1ccc(O)cc1)C(=O)N1CCC[C@H]1C(=O)NCC(=O)N[C@@H](CCC(N)=O)C(=O)N[C@@H](Cc1ccccc1)C(=O)N[C@H](Cc1ccccc1)C(=O)N[C@@H](Cc1ccccc1)C(=O)N[C@@H](CO)C(N)=O [compound 4] (H-YLPGQF[dF]FS-NH2; N-terminus assumed)
max response (human CMKLR1): 1,66 DF/F0

Molecule: C[C@H](N)C(=O)N[C@H](Cc1c[nH]c2ccccc12)C(=O)N1CCC[C@H]1C(=O)NCC(=O)N[C@@H](CCC(N)=O)C(=O)N[C@@H](Cc1ccccc1)C(=O)N[C@@H](C)C(=O)N[C@H](Cc1ccc(O)cc1)C(=O)N[C@@H](CO)C(N)=O [compound 21] (H-A[dW]PGQFA[dY]S-NH2; N-terminus assumed)
max response (human CMKLR1): 0,30 DF/F0
EC50 (human CMKLR1): 16500 nM

Molecule: NC(=O)CC[C@H](NC(=O)CNC(=O)[C@@H]1CCCN1C(=O)[C@H](Cc1ccccc1)NC(=O)[C@H](N)Cc1ccccc1)C(=O)N[C@@H](Cc1c[nH]c2ccccc12)C(=O)NCC(=O)N[C@@H](Cc1ccccc1)C(=O)N[C@@H](CO)C(N)=O [compound 12] (H-[dF]FPGQWGFS-NH2; N-terminus assumed)
max response (human CMKLR1): 1,56 DF/F0
EC50 (human CMKLR1): 3010 nM

Molecule: CC(C)C[C@H](NC(=O)[C@H]1CCCN1C(=O)CNC(=O)[C@H](Cc1ccccc1)NC(=O)[C@H](CC(C)C)NC(=O)[C@@H](N)Cc1ccccc1)C(=O)N[C@@H](C)C(=O)N[C@@H](CC(C)C)C(=O)N1CCC[C@@H]1C(=O)O [compound 116] (H-FLFG[dP]LAL[dP]-OH; N-terminus assumed)
max response (human CMKLR1): 0,9 DF/F0
EC50 (human CMKLR1): 4140 nM

The remaining lines, values ahead:

max response (human CMKLR1): 0,81 DF/F0
EC50 (human CMKLR1): 286 nM
half-life at 50 µg/mL [1]: 33 min
Molecule: CC(C)C[C@H](NC(=O)[C@@H]1CCCN1)C(=O)N1CCC[C@H]1C(=O)NCC(=O)N[C@@H](CCC(N)=O)C(=O)N[C@H](Cc1ccccc1)C(=O)N[C@@H](C)C(=O)N[C@@H](Cc1ccccc1)C(=O)N[C@@H](Cc1ccccc1)C(=O)O [compound 58] (H-PLPGQ[dF]AFF-OH; N-terminus assumed)

max response (human CMKLR1): 0,99 DF/F0
EC50 (human CMKLR1): 5580 nM
half-life at 50 µg/mL [1]: 49 min
Molecule: CC(C)C[C@H](NC(=O)[C@H](Cc1ccccc1)NC(=O)[C@H](CCC(N)=O)NC(=O)CNC(=O)[C@H]1CCCN1C(=O)[C@@H](CC(C)C)NC(=O)[C@@H](N)Cc1ccc(O)cc1)C(=O)N[C@@H](Cc1ccccc1)C(=O)N[C@@H](CO)C(=O)O [compound 75] (H-Y[dL][dP]GQFLFS-OH; N-terminus assumed)

max response (human CMKLR1): 1,61 DF/F0
EC50 (human CMKLR1): 3.62 nM
half-life at 50 µg/mL [1]: 77 min
Molecule: CC(C)C[C@H](NC(=O)[C@H](N)Cc1ccc(O)cc1)C(=O)N1CCC[C@H]1C(=O)NCC(=O)N[C@@H](CCC(N)=O)C(=O)N[C@@H](Cc1ccc(O)cc1)C(=O)N[C@@H](C)C(=O)N[C@@H](Cc1ccccc1)C(=O)N[C@@H](CO)C(=O)O [compound 82] (H-[dY]LPGQYAFS-OH; N-terminus assumed)

max response (human CMKLR1): 1,62 DF/F0
EC50 (human CMKLR1): 27.5 nM
half-life at 50 µg/mL [1]: 49 min
Molecule: CC(C)C[C@H](NC(=O)[C@@H](N)Cc1ccc(O)cc1)C(=O)N1CCC[C@H]1C(=O)NCC(=O)N[C@@H](CCC(N)=O)C(=O)N[C@@H](Cc1ccc(O)cc1)C(=O)N[C@@H](C)C(=O)N[C@@H](Cc1ccc(O)cc1)C(=O)N[C@H](CO)C(=O)O [compound 87] (H-YLPGQYAY[dS]-OH; N-terminus assumed)

stability: t1/2 ±SD ([1]; peptide half life in human serum (25% v/v in RPMI, 37°C), HPLC assay, mean of three independent experiments ± SD): 17 ± 4 min
Molecule: YFPGHFAFS-NH2

half-life at 50 µg/mL [1]: 374 min
Molecule: C[C@@H](NC(=O)[C@H](Cc1ccccc1)NC(=O)[C@H](Cc1ccccc1)NC(=O)[C@@H](CO)NC(=O)[C@@H]1CCCN1C(=O)[C@@H](Cc1ccc(O)cc1)NC(=O)[C@H](N)Cc1ccc(O)cc1)C(=O)N[C@@H](Cc1ccccc1)C(=O)N1CCC[C@H]1C(=O)O [compound 154] (H-[dY][dY]P[dS]FF[dA]FP-OH; N-terminus assumed)

half-life [1]: 36 ± 4 min
Molecule: CC(C)C[C@H](NC(=O)[C@@H](N)Cc1ccc(O)cc1)C(=O)N1CCC[C@H]1C(=O)NCC(=O)N[C@@H](CCC(N)=O)C(=O)N[C@@H](Cc1ccc(O)cc1)C(=O)N[C@@H](C)C(=O)N[C@@H](Cc1ccccc1)C(=O)N[C@H](Cc1ccccc1)C(=O)O (H-YLPGQYAF[dF]-OH)

max response (human CMKLR1): 1,48 DF/F0
EC50 (human CMKLR1): 2220 nM
Molecule: CC[C@H](C)[C@H](NC(=O)CNC(=O)[C@@H]1CCCN1C(=O)[C@H](Cc1ccccc1)NC(=O)[C@@H](N)Cc1ccc(O)cc1)C(=O)N[C@@H](Cc1ccccc1)C(=O)N[C@@H](C)C(=O)N[C@H](Cc1ccccc1)C(=O)N[C@@H](CO)C(N)=O [compound 10] (H-YFPGIFA[dF]S-NH2; N-terminus assumed)

max response (human CMKLR1): 1,04 DF/F0
EC50 (human CMKLR1): 52.6 nM
Molecule: YFPGQFAFQ-OH [compound 50]

max response (human CMKLR1): 1,61 DF/F0
EC50 (human CMKLR1): 1880 nM
Molecule: YFPGQWAWS-NH2 [compound 9]

max response (human CMKLR1): 1,81 DF/F0
EC50 (human CMKLR1): 611 nM
Molecule: C[C@H](NC(=O)[C@H](Cc1ccccc1)NC(=O)[C@H](CCC(N)=O)NC(=O)CNC(=O)[C@@H]1CCCN1C(=O)[C@@H](N)Cc1ccccc1)C(=O)N[C@@H](Cc1ccccc1)C(=O)N[C@H](CO)C(=O)N[C@H](CO)C(=O)O [compound 105] (H-FPGQFAF[dS][dS]-OH; N-terminus assumed)

max response (human CMKLR1): 1,61 DF/F0
EC50 (human CMKLR1): 1210 nM
Molecule: CC(C)C[C@H](NC(=O)CNC(=O)[C@H](Cc1ccc(O)cc1)NC(=O)[C@H](CC(C)C)NC(=O)[C@H](N)Cc1ccccc1)C(=O)N[C@@H](Cc1ccc(O)cc1)C(=O)N[C@@H](C)C(=O)N[C@@H](Cc1ccccc1)C(=O)N1CCC[C@@H]1C(=O)O [compound 108] (H-[dF]LYGLYAF[dP]-OH; N-terminus assumed)

max response (human CMKLR1): 0,67 DF/F0
EC50 (human CMKLR1): 1180 nM
Molecule: FPPGQGAFK-OH [compound 66]

Source: article PMC3351444, “Molecular Evolution of a Peptide GPCR Ligand Driven by Artificial Neural Networks” (PLoS ONE, 2012)
